Measured values reported in patent publication US10597388B2, “Pyridazinone herbicides” (FMC CORPORATION, priority 2014, dated 2020).

Assays:
Assay in all cases: Test D controlled growth environment herbicide test, pre- and postemergence
Format in all cases: in vivo
[1] = system: ryegrass, Italian (Italian ryegrass, Lolium multiflorum); conditions: for Ryegrass, Italian plant response rating / Plant response rating (scale of 0 to 100), Ryegrass, Italian: 31 g ai/ha
Outline: (§1)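 Pre-emergence: seeds sown in silt loam soil were sprayed with compound in a non-phytotoxic solvent mix containing surfactant. Post-emergence: plants at 2 to 18 cm (1- to 4-leaf stage) in peat moss/vermiculite medium got the same formulation. Visual 0–100 rating versus controls after 14 to 21 d.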

[2] = system: field poppy (Papaver rhoeas)
Outline: as §1

[3] = system: bluegrass (annual bluegrass, Poa annua)
Outline: as §1

[4] = system: chickweed (common chickweed, Stellaria media); conditions: for Chickweed plant response rating / Plant response rating (scale of 0 to 100), Chickweed: 31 g ai/ha
Outline: as §1

[5] = system: radish, wild (wild radish, Raphanus raphanistrum); conditions: for Radish, Wild plant response rating / Plant response rating (scale of 0 to 100), Radish, Wild: 31 g ai/ha
Outline: as §1

[6] = system: windgrass (Apera spica-venti); conditions: for Windgrass plant response rating / Plant response rating (scale of 0 to 100), Windgrass: 31 g ai/ha
Outline: as §1

[7] = system: mustard, wild (wild mustard, Sinapis arvensis); conditions: for Mustard, Wild plant response rating / Plant response rating (scale of 0 to 100), Mustard, Wild: 31 g ai/ha
Outline: as §1

[8] = system: canarygrass (Phalaris minor); conditions: for Canarygrass plant response rating / Plant response rating (scale of 0 to 100), Canarygrass: 31 g ai/ha
Outline: as §1

[9] = system: foxtail, green (green foxtail, Setaria viridis); conditions: for Foxtail, Green plant response rating / Plant response rating (scale of 0 to 100), Foxtail, Green: 31 g ai/ha
Outline: as §1

[10] = system: barley, winter (winter barley, Hordeum vulgare)
Outline: as §1

[11] = system: deadnettle (henbit deadnettle, Lamium amplexicaule); conditions: for Deadnettle plant response rating / Plant response rating (scale of 0 to 100), Deadnettle: 31 g ai/ha
Outline: as §1

[12] = system: barley, spring (spring barley, Hordeum vulgare)
Outline: as §1

[13] = system: wheat, winter (winter wheat, Triticum aestivum); conditions: for Wheat, Winter plant response rating / Plant response rating (scale of 0 to 100), Wheat, Winter: 31 g ai/ha
Outline: as §1

[14] = Postemergence, scale 0 to 100 (0 no effect, 100 complete control)
[15] = Postemergence, 125 g ai/ha, visual rating on scale 0 (no effect) to 100 (complete control), 14 to 21 d
[16] = Postemergence, 250 g ai/ha, scale 0 to 100 (0 no effect, 100 complete control)
[17] = Preemergence, 62 g ai/ha, scale 0 to 100 (0 no effect, 100 complete control)
[18] = Preemergence, 125 g ai/ha, scale 0 to 100 (0 no effect, 100 complete control)
[19] = Preemergence, 250 g ai/ha, scale 0 to 100 (0 no effect, 100 complete control)
[20] = postemergence, 62 g ai/ha, scale 0 to 100, 0 no effect, 100 complete control
[21] = Postemergence, 31 g ai/ha, scale 0 to 100 (0 no effect, 100 complete control)

CCC(=O)Oc1c(C)nn(C)c(=O)c1-c1c(C)sc2ccc(C)cc12 [Compound 42]
30: Plant response rating (scale of 0 to 100), Foxtail, Green ([9]; Preemergence)
75: Ryegrass, Italian plant response rating [1, 14] | Plant response rating, Windgrass [6, 20] | Plant response rating, Canarygrass [8, 20]
80: Plant response rating, Ryegrass, Italian [1, 20] | Bluegrass plant response rating [3, 19] | Plant response rating, Mustard, Wild [7, 16] | Plant response rating, Canarygrass [8, 15] | Plant response rating, Canarygrass [8, 16] | Plant response rating, Foxtail, Green [9, 16]
5: Radish, Wild plant response rating [5, 14] | Plant response rating, Barley, Winter [10, 18] | Deadnettle plant response rating [11, 14] | Plant response rating, Barley, Spring [12, 15] | Barley, Spring plant response rating [12, 19] | Plant response rating, Wheat, Winter [13, 18] | Plant response rating, Wheat, Winter [13, 20]
98: Plant response rating, Windgrass [6, 16]
55: Plant response rating, Deadnettle [11, 16]
35: Plant response rating, Bluegrass [3, 16] | Plant response rating (scale of 0 to 100), Bluegrass ([3]; Preemergence, 31 g ai/ha) | Foxtail, Green plant response rating [9, 14] | Plant response rating, Deadnettle [11, 15]
90: Plant response rating, Windgrass [6, 15] | Plant response rating (scale of 0 to 100), Canarygrass ([8]; Preemergence)
60: Plant response rating, Radish, Wild [5, 19]
0: Plant response rating (scale of 0 to 100), Radish, Wild ([5]; Preemergence) | Plant response rating, Barley, Winter [10, 21] | Plant response rating, Barley, Winter [10, 15] | Plant response rating (scale of 0 to 100), Barley, Winter ([10]; Preemergence, 31 g ai/ha) | Plant response rating, Barley, Winter [10, 17] | Plant response rating, Barley, Winter [10, 20] | Plant response rating (scale of 0 to 100), Deadnettle ([11]; Preemergence) | Plant response rating, Deadnettle [11, 17] | Plant response rating, Barley, Spring [12, 21] | Plant response rating (scale of 0 to 100), Barley, Spring ([12]; Preemergence, 31 g ai/ha) | Plant response rating, Barley, Spring [12, 17] | Plant response rating, Barley, Spring [12, 18] | Plant response rating, Barley, Spring [12, 20] | Wheat, Winter plant response rating [13, 14] | Plant response rating (scale of 0 to 100), Wheat, Winter ([13]; Preemergence) | Plant response rating, Wheat, Winter [13, 17]
85: Plant response rating, Ryegrass, Italian [1, 15] | Plant response rating, Ryegrass, Italian [1, 16] | Plant response rating, Field Poppy [2, 20] | Plant response rating, Windgrass [6, 17] | Plant response rating, Windgrass [6, 18]
70: Windgrass plant response rating [6, 14] | Plant response rating (scale of 0 to 100), Windgrass ([6]; Preemergence) | Plant response rating, Mustard, Wild [7, 15] | Plant response rating, Mustard, Wild [7, 20]
100: Plant response rating, Ryegrass, Italian [1, 17] | Plant response rating, Ryegrass, Italian [1, 18] | Plant response rating, Ryegrass, Italian [1, 19] | Plant response rating, Field Poppy [2, 15] | Plant response rating, Field Poppy [2, 16] | Plant response rating (scale of 0 to 100), Field Poppy ([2]; Preemergence, 31 g ai/ha) | Plant response rating, Field Poppy [2, 17] | Plant response rating, Field Poppy [2, 18] | Plant response rating, Field Poppy [2, 19] | Plant response rating, Chickweed [4, 15] | Plant response rating, Chickweed [4, 16] | Plant response rating (scale of 0 to 100), Chickweed ([4]; Preemergence) | Plant response rating, Chickweed [4, 17] | Plant response rating, Chickweed [4, 18] | Plant response rating, Chickweed [4, 19] | Plant response rating, Chickweed [4, 20] | Plant response rating, Windgrass [6, 19] | Plant response rating, Canarygrass [8, 18] | Plant response rating, Canarygrass [8, 19] | Plant response rating, Foxtail, Green [9, 18] | Plant response rating, Foxtail, Green [9, 19]
25: Mustard, Wild plant response rating [7, 14] | Plant response rating, Mustard, Wild [7, 19] | Plant response rating, Deadnettle [11, 18] | Plant response rating, Deadnettle [11, 20]
95: Plant response rating (scale of 0 to 100), Ryegrass, Italian ([1]; Preemergence) | Chickweed plant response rating [4, 14] | Plant response rating, Canarygrass [8, 17]
50: Canarygrass plant response rating [8, 14] | Plant response rating, Foxtail, Green [9, 20]
15: Bluegrass plant response rating [3, 21] | Plant response rating, Radish, Wild [5, 18] | Plant response rating (scale of 0 to 100), Mustard, Wild ([7]; Preemergence) | Plant response rating, Mustard, Wild [7, 17] | Barley, Winter plant response rating [10, 19] | Plant response rating, Deadnettle [11, 19] | Plant response rating, Wheat, Winter [13, 16] | Plant response rating, Wheat, Winter [13, 19]
10: Plant response rating, Radish, Wild [5, 20] | Plant response rating, Barley, Winter [10, 16] | Plant response rating, Barley, Spring [12, 16] | Plant response rating, Wheat, Winter [13, 15]
65: Field Poppy plant response rating [2, 21] | Plant response rating, Bluegrass [3, 18] | Plant response rating, Radish, Wild [5, 16] | Plant response rating, Foxtail, Green [9, 15] | Plant response rating, Foxtail, Green [9, 17]
45: Plant response rating, Bluegrass [3, 17]
20: Plant response rating, Bluegrass [3, 15] | Plant response rating, Bluegrass [3, 20] | Plant response rating, Radish, Wild [5, 15] | Plant response rating, Mustard, Wild [7, 18]

COc1nn(C)c(=O)c(-c2c(C)ccc3ccccc23)c1OC(=O)OC(C)C [Compound 36]
0: Plant response rating (scale of 0 to 100), Bluegrass ([3]; Preemergence, 31 g ai/ha) | Plant response rating (scale of 0 to 100), Radish, Wild ([5]; Preemergence) | Plant response rating, Radish, Wild [5, 17] | Plant response rating (scale of 0 to 100), Windgrass ([6]; Preemergence) | Plant response rating (scale of 0 to 100), Canarygrass ([8]; Preemergence) | Plant response rating, Barley, Winter [10, 21] | Plant response rating (scale of 0 to 100), Barley, Winter ([10]; Preemergence, 31 g ai/ha) | Plant response rating, Barley, Winter [10, 17] | Plant response rating, Barley, Winter [10, 18] | Barley, Winter plant response rating [10, 19] | Plant response rating, Barley, Winter [10, 20] | Plant response rating (scale of 0 to 100), Deadnettle ([11]; Preemergence) | Plant response rating, Deadnettle [11, 17] | Plant response rating, Barley, Spring [12, 21] | Plant response rating, Barley, Spring [12, 15] | Plant response rating (scale of 0 to 100), Barley, Spring ([12]; Preemergence, 31 g ai/ha) | Plant response rating, Barley, Spring [12, 17] | Plant response rating, Barley, Spring [12, 18] | Barley, Spring plant response rating [12, 19] | Plant response rating, Barley, Spring [12, 20] | Wheat, Winter plant response rating [13, 14] | Plant response rating (scale of 0 to 100), Wheat, Winter ([13]; Preemergence) | Plant response rating, Wheat, Winter [13, 17] | Plant response rating, Wheat, Winter [13, 18] | Plant response rating, Wheat, Winter [13, 19] | Plant response rating, Wheat, Winter [13, 20]
45: Plant response rating (scale of 0 to 100), Mustard, Wild ([7]; Preemergence) | Plant response rating, Canarygrass [8, 17] | Plant response rating (scale of 0 to 100), Foxtail, Green ([9]; Preemergence) | Plant response rating, Foxtail, Green [9, 20]
5: Plant response rating, Windgrass [6, 17] | Plant response rating, Windgrass [6, 18] | Plant response rating, Barley, Winter [10, 15] | Plant response rating, Wheat, Winter [13, 15]
100: Plant response rating, Field Poppy [2, 16] | Plant response rating, Field Poppy [2, 19] | Chickweed plant response rating [4, 14] | Plant response rating, Chickweed [4, 15] | Plant response rating, Chickweed [4, 16] | Plant response rating, Chickweed [4, 18] | Plant response rating, Chickweed [4, 19] | Plant response rating, Chickweed [4, 20] | Plant response rating, Radish, Wild [5, 15] | Plant response rating, Radish, Wild [5, 16] | Mustard, Wild plant response rating [7, 14] | Plant response rating, Mustard, Wild [7, 15] | Plant response rating, Mustard, Wild [7, 16] | Plant response rating, Mustard, Wild [7, 20] | Plant response rating, Deadnettle [11, 15] | Plant response rating, Deadnettle [11, 16] | Plant response rating, Deadnettle [11, 20]
55: Plant response rating, Canarygrass [8, 15]
65: Plant response rating, Ryegrass, Italian [1, 17] | Plant response rating, Windgrass [6, 19] | Plant response rating, Canarygrass [8, 19]
10: Bluegrass plant response rating [3, 21] | Plant response rating, Bluegrass [3, 18] | Plant response rating, Barley, Winter [10, 16] | Plant response rating, Barley, Spring [12, 16]
80: Plant response rating, Ryegrass, Italian [1, 20] | Radish, Wild plant response rating [5, 14] | Plant response rating, Canarygrass [8, 16] | Plant response rating, Foxtail, Green [9, 15] | Deadnettle plant response rating [11, 14]
90: Plant response rating, Ryegrass, Italian [1, 15] | Plant response rating, Ryegrass, Italian [1, 16] | Plant response rating, Field Poppy [2, 15] | Plant response rating, Radish, Wild [5, 20] | Plant response rating, Mustard, Wild [7, 19] | Plant response rating, Foxtail, Green [9, 16]
85: Plant response rating, Mustard, Wild [7, 17] | Plant response rating, Mustard, Wild [7, 18] | Plant response rating, Deadnettle [11, 19]
25: Plant response rating, Foxtail, Green [9, 17]
75: Ryegrass, Italian plant response rating [1, 14] | Plant response rating, Windgrass [6, 16] | Plant response rating, Foxtail, Green [9, 19]
20: Plant response rating (scale of 0 to 100), Ryegrass, Italian ([1]; Preemergence)
15: Plant response rating, Bluegrass [3, 17] | Bluegrass plant response rating [3, 19] | Plant response rating, Bluegrass [3, 20] | Canarygrass plant response rating [8, 14] | Plant response rating, Wheat, Winter [13, 16]
50: Plant response rating, Field Poppy [2, 17] | Plant response rating, Radish, Wild [5, 18] | Plant response rating, Windgrass [6, 20] | Plant response rating, Deadnettle [11, 18]
60: Field Poppy plant response rating [2, 21]
70: Plant response rating, Ryegrass, Italian [1, 18] | Plant response rating, Ryegrass, Italian [1, 19] | Plant response rating, Field Poppy [2, 18] | Plant response rating, Field Poppy [2, 20] | Plant response rating, Radish, Wild [5, 19] | Plant response rating, Windgrass [6, 15] | Plant response rating, Foxtail, Green [9, 18]
40: Plant response rating, Bluegrass [3, 15] | Windgrass plant response rating [6, 14] | Plant response rating, Canarygrass [8, 18] | Plant response rating, Canarygrass [8, 20]
95: Plant response rating (scale of 0 to 100), Chickweed ([4]; Preemergence) | Plant response rating, Chickweed [4, 17]
35: Plant response rating, Bluegrass [3, 16] | Foxtail, Green plant response rating [9, 14]
